From US20250295757A1 (priority 2022, published 2025) come the findings set out here.

This experiment relates to SARS-CoV-2 (WT and OTS virus) in VeroET cells. The experiment is classed as cell-based.

`O=c1[nH]cc(F)c(=O)[nH]1` [5-Fluorouracil]: the “number of infectious virus particles in a TCID50 virus assay” value is “reduces”. Regarding `CC(C)C(=O)OC[C@H]1O[C@@H](n2ccc(NO)nc2=O)[C@H](O)[C@@H]1O` [Malnupiravir], the “number of infectious virus particles in a TCID50 virus assay” value is “reduces”.
